# Measured values published in ChEMBL document CHEMBL5724914, “Linking interpersonal differences in gut microbiota composition and drug biotransformation activity” (2024).
# How the values were obtained:
# [1] = human gut metagenome, 24 h, 2 µM
# [2] = human gut metagenome, 24 h, 2 µM; remark: listed apart in the source
# [3] = (§1) The drug is tested on WLS-098 corresponding to human gut metagenome with ENA study accession number: PRJEB37062 and ENA sample accession number: ERS12561754 for biotransformation under anaerobic condition. The drug concentrations were measured over 9 timepoints collected between 0 and 24 hours of incubation by liquid-chromatography-coupled mass spectrometry (LC–MS); conditions: 2 µM
# [4] = human gut metagenome, 24 h, 2 µM; remark: listed apart in the source
# [5] = human gut metagenome, 24 h, 2 µM; remark: listed apart in the source
# [6] = as §1, with “WLS-370” for “WLS-098”, “ERS12561793” for “ERS12561754”; conditions: 2 µM
# [7] = human gut metagenome, 24 h, 2 µM; remark: listed apart in the source
# [8] = human gut metagenome, 24 h, 2 µM; remark: listed apart in the source
# [9] = human gut metagenome, 24 h, 2 µM; remark: listed apart in the source
# [10] = as §1, with “WLS-170” for “WLS-098”, “ERS12561762” for “ERS12561754”; conditions: 2 µM
# [11] = human gut metagenome, 24 h, 2 µM; remark: listed apart in the source
# [12] = human gut metagenome, 24 h, 2 µM; remark: listed apart in the source
# [13] = human gut metagenome, 24 h, 2 µM; remark: listed apart in the source
# [14] = as §1, with “WLS-039” for “WLS-098”, “ERS12561746” for “ERS12561754”; conditions: 2 µM
# [15] = as §1, with “WLS-038” for “WLS-098”, “ERS12561745” for “ERS12561754”; conditions: 2 µM
# [16] = human gut metagenome, 24 h, 2 µM; remark: listed apart in the source
# [17] = as §1, with “WLS-027” for “WLS-098”, “ERS12561744” for “ERS12561754”; conditions: 2 µM
# [18] = human gut metagenome, 24 h, 2 µM; remark: listed apart in the source
# [19] = human gut metagenome, 24 h, 2 µM; remark: listed apart in the source
# [20] = human gut metagenome, 24 h, 2 µM; remark: listed apart in the source
# [21] = human gut metagenome, 24 h, 2 µM; remark: listed apart in the source
# [22] = as §1, with “WLS-240” for “WLS-098”, “ERS12561773” for “ERS12561754”; conditions: 2 µM
# [23] = human gut metagenome, 24 h, 2 µM; remark: listed apart in the source
# [24] = human gut metagenome, 24 h, 2 µM; remark: listed apart in the source
# [25] = human gut metagenome, 24 h, 2 µM; remark: listed apart in the source
# [26] = as §1, with “WLS-082” for “WLS-098”, “ERS12561751” for “ERS12561754”; conditions: 2 µM
# [27] = human gut metagenome, 24 h, 2 µM; remark: listed apart in the source
# [28] = as §1, with “WLS-010” for “WLS-098”, “ERS12561743” for “ERS12561754”; conditions: 2 µM
# [29] = human gut metagenome, 24 h, 2 µM; remark: listed apart in the source
# [30] = as §1, with “WLS-073” for “WLS-098”, “ERS12561749” for “ERS12561754”; conditions: 2 µM
# [31] = as §1, with “WLS-069” for “WLS-098”, “ERS12561748” for “ERS12561754”; conditions: 2 µM
# [32] = human gut metagenome, 24 h, 2 µM; remark: listed apart in the source
# [33] = human gut metagenome, 24 h, 2 µM; remark: listed apart in the source
# [34] = as §1, with “WLS-052” for “WLS-098”, “ERS12561747” for “ERS12561754”; conditions: 2 µM
# [35] = human gut metagenome, 24 h, 2 µM; remark: listed apart in the source
# [36] = human gut metagenome, 24 h, 2 µM; remark: listed apart in the source
# [37] = human gut metagenome, 24 h, 2 µM; remark: listed apart in the source
# [38] = human gut metagenome, 24 h, 2 µM; remark: listed apart in the source
# [39] = as §1, with “WLS-350” for “WLS-098”, “ERS12561789” for “ERS12561754”; conditions: 2 µM
# [40] = human gut metagenome, 24 h, 2 µM; remark: listed apart in the source
# [41] = human gut metagenome, 24 h, 2 µM; remark: listed apart in the source
# [42] = human gut metagenome, 24 h, 2 µM; remark: listed apart in the source
# [43] = as §1, with “WLS-077” for “WLS-098”, “ERS12561750” for “ERS12561754”; conditions: 2 µM
# [44] = human gut metagenome, 24 h, 2 µM; remark: listed apart in the source
# [45] = human gut metagenome, 24 h, 2 µM; remark: listed apart in the source
# [46] = human gut metagenome, 24 h, 2 µM; remark: listed apart in the source
# [47] = as §1, with “WLS-220” for “WLS-098”, “ERS12561769” for “ERS12561754”; conditions: 2 µM
# [48] = as §1, with “WLS-086” for “WLS-098”, “ERS12561752” for “ERS12561754”; conditions: 2 µM
# [49] = as §1, with “WLS-090” for “WLS-098”, “ERS12561753” for “ERS12561754”; conditions: 2 µM
# [50] = human gut metagenome, 24 h, 2 µM; remark: listed apart in the source
# [51] = as §1, with “WLS-310” for “WLS-098”, “ERS12561785” for “ERS12561754”; conditions: 2 µM
# [52] = human gut metagenome, 24 h, 2 µM; remark: listed apart in the source
# [53] = human gut metagenome, 24 h, 2 µM; remark: listed apart in the source
# [54] = as §1, with “WLS-006” for “WLS-098”, “ERS12561741” for “ERS12561754”; conditions: 2 µM
# [55] = human gut metagenome, 24 h, 2 µM; remark: listed apart in the source
# [56] = as §1, with “WLS-007” for “WLS-098”, “ERS12561742” for “ERS12561754”; conditions: 2 µM
# [57] = human gut metagenome, 24 h, 2 µM; remark: listed apart in the source
# [58] = human gut metagenome, 24 h, 2 µM; remark: listed apart in the source
# [59] = human gut metagenome, 24 h, 2 µM; remark: listed apart in the source
# [60] = human gut metagenome, 24 h, 2 µM; remark: listed apart in the source
# Further: call rule not given here.
compound,measurement,setting,value
CN(C)CCOC(c1ccc(Cl)cc1)c1ccccn1.O=C(O)/C=C\C(=O)O (stereo not drawn) [CARBINOXAMINE MALEATE],Bacterial Biotransformation,[1],Compound NOT metabolized
same,Bacterial Biotransformation,[2],Compound NOT metabolized
same,Bacterial Biotransformation,[3],Compound NOT metabolized
same,Bacterial Biotransformation,[4],Compound NOT metabolized
same,Bacterial Biotransformation,[5],Compound metabolized
same,Bacterial Biotransformation,[6],Compound NOT metabolized
same,Bacterial Biotransformation,[7],Compound NOT metabolized
same,Bacterial Biotransformation,[8],Compound NOT metabolized
same,Bacterial Biotransformation,[9],Compound NOT metabolized
same,Bacterial Biotransformation,[10],Compound metabolized
same,Bacterial Biotransformation,[11],Compound metabolized
same,Bacterial Biotransformation,[12],Compound metabolized
same,Bacterial Biotransformation,[13],Compound NOT metabolized
CNCC[C@H](Oc1cccc2ccccc12)c1cccs1 [DULOXETINE],Bacterial Biotransformation,[14],Compound NOT metabolized
same,Bacterial Biotransformation,[15],Compound NOT metabolized
same,Bacterial Biotransformation,[16],Compound NOT metabolized
same,Bacterial Biotransformation,[17],Compound NOT metabolized
same,Bacterial Biotransformation,[18],Compound NOT metabolized
same,Bacterial Biotransformation,[19],Compound NOT metabolized
same,Bacterial Biotransformation,[20],Compound NOT metabolized
same,Bacterial Biotransformation,[21],Compound NOT metabolized
same,Bacterial Biotransformation,[22],Compound NOT metabolized
same,Bacterial Biotransformation,[1],Compound metabolized
same,Bacterial Biotransformation,[23],Compound NOT metabolized
same,Bacterial Biotransformation,[24],Compound NOT metabolized
same,Bacterial Biotransformation,[25],Compound NOT metabolized
same,Bacterial Biotransformation,[26],Compound NOT metabolized
same,Bacterial Biotransformation,[2],Compound NOT metabolized
same,Bacterial Biotransformation,[27],Compound NOT metabolized
same,Bacterial Biotransformation,[28],Compound NOT metabolized
same,Bacterial Biotransformation,[29],Compound metabolized
same,Bacterial Biotransformation,[30],Compound NOT metabolized
same,Bacterial Biotransformation,[3],Compound metabolized
same,Bacterial Biotransformation,[31],Compound NOT metabolized
same,Bacterial Biotransformation,[4],Compound NOT metabolized
same,Bacterial Biotransformation,[32],Compound NOT metabolized
same,Bacterial Biotransformation,[33],Compound NOT metabolized
same,Bacterial Biotransformation,[34],Compound NOT metabolized
same,Bacterial Biotransformation,[35],Compound NOT metabolized
same,Bacterial Biotransformation,[36],Compound metabolized
same,Bacterial Biotransformation,[5],Compound metabolized
same,Bacterial Biotransformation,[37],Compound metabolized
same,Bacterial Biotransformation,[38],Compound NOT metabolized
same,Bacterial Biotransformation,[39],Compound NOT metabolized
same,Bacterial Biotransformation,[40],Compound NOT metabolized
same,Bacterial Biotransformation,[41],Compound NOT metabolized
same,Bacterial Biotransformation,[42],Compound NOT metabolized
same,Bacterial Biotransformation,[43],Compound NOT metabolized
same,Bacterial Biotransformation,[6],Compound NOT metabolized
same,Bacterial Biotransformation,[44],Compound metabolized
same,Bacterial Biotransformation,[7],Compound NOT metabolized
same,Bacterial Biotransformation,[45],Compound NOT metabolized
same,Bacterial Biotransformation,[8],Compound metabolized
same,Bacterial Biotransformation,[46],Compound NOT metabolized
same,Bacterial Biotransformation,[47],Compound NOT metabolized
same,Bacterial Biotransformation,[48],Compound NOT metabolized
same,Bacterial Biotransformation,[49],Compound metabolized
same,Bacterial Biotransformation,[9],Compound NOT metabolized
same,Bacterial Biotransformation,[50],Compound metabolized
same,Bacterial Biotransformation,[51],Compound metabolized
same,Bacterial Biotransformation,[52],Compound NOT metabolized
same,Bacterial Biotransformation,[10],Compound metabolized
same,Bacterial Biotransformation,[53],Compound NOT metabolized
same,Bacterial Biotransformation,[11],Compound NOT metabolized
same,Bacterial Biotransformation,[54],Compound metabolized
same,Bacterial Biotransformation,[55],Compound NOT metabolized
same,Bacterial Biotransformation,[56],Compound metabolized
same,Bacterial Biotransformation,[12],Compound metabolized
same,Bacterial Biotransformation,[57],Compound NOT metabolized
same,Bacterial Biotransformation,[58],Compound NOT metabolized
same,Bacterial Biotransformation,[13],Compound NOT metabolized
same,Bacterial Biotransformation,[59],Compound NOT metabolized
same,Bacterial Biotransformation,[60],Compound NOT metabolized
